Experimental data: patent publication US10874631B2, “Altertoxin II as a selective inhibitor of Ewing family of tumor cells” (priority 2016, dated 2020)

System: Ewing sarcoma cells
Experiment: Panel of 5 pediatric cancer cell lines, selective cytotoxicity
Format: cell-based
Conditions: 5 types of solid pediatric cancers

## O=C1C[C@H](O)[C@@H]2c3c(ccc(O)c31)-c1ccc(O)c3c1[C@@]2(O)CCC3=O [Altertoxin I, altertoxin I]
  selective cytotoxic activity against Ewing sarcoma cells: did not show selective cytotoxic activity
